Measured values from publication PMC9401617 (Science Advances, 2022).
Changes are numbered by the printed parent chain. Where two headings read alike, the source gives them in different places. Values belong to the compound of their own block, whether it stands above or below them.

Tests used:
hUHRF1 [1] = biological target: T1, hUHRF1 (Homo sapiens, UniProt Q96T88, D142A); assay: MST with labeled recombinant mutant protein; assay type: binding
T1 sequence (Q96T88 1-793 D142A): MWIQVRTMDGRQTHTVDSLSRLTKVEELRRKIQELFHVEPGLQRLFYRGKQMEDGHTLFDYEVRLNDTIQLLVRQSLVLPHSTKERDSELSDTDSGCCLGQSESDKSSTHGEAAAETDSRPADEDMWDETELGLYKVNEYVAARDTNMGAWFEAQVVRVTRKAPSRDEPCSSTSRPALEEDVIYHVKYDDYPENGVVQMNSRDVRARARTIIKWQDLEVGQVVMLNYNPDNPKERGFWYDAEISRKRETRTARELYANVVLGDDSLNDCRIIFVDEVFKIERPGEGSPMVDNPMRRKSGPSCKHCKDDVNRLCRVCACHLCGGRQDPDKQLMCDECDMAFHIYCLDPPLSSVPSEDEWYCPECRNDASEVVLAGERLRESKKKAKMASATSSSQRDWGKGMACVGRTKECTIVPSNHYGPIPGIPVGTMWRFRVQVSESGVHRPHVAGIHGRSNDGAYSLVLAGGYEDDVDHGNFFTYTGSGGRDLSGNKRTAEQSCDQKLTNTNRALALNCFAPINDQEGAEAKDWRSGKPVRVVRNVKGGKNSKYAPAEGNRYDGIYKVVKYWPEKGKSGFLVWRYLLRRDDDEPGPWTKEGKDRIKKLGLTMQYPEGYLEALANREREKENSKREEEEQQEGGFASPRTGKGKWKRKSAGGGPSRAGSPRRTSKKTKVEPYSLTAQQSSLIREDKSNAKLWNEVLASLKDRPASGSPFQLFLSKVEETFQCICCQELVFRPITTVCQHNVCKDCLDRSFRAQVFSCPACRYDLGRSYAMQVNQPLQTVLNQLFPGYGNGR

hUHRF1 [2] = biological target: T2, hUHRF1 (Homo sapiens, UniProt Q96T88); assay: MST with labeled recombinant protein; assay type: binding
T2 sequence (Q96T88 1-793): T1 sequence (Q96T88 1-793 D142A) with A142D

hUHRF1 [3] = biological target: T2, hUHRF1; assay: MST with labeled recombinant protein; assay type: binding; remark: listed apart in the source
hUHRF1 [4] = biological target: T3, hUHRF1 (Homo sapiens, UniProt Q96T88, R649A); assay: MST with labeled recombinant mutant protein; assay type: binding
T3 sequence (Q96T88 1-793 R649A): T1 sequence (Q96T88 1-793 D142A) with A142D, R649A

hUHRF1 (Homo sapiens) = assay: EMSA

Kd (hUHRF1 [1]): 60 µM
Compound: CCCCCCCCCCCCCCCC(=O)OC[C@H](COP(=O)(O)O[C@H]1[C@H](O)[C@@H](OP(=O)(O)O)[C@H](O)[C@@H](O)[C@H]1O)OC(=O)CCCCCCCCCCCCCCC [D142*, di-C 16:0 PI5P]

Kd (hUHRF1 [2]): 5.5 µM
Compound: CCCCCCCCCCCCCCCC(=O)OC[C@H](COP(=O)(O)O[C@@H]1[C@H](O)[C@H](OP(=O)(O)O)[C@@H](O)[C@H](O)[C@H]1O)OC(=O)CCCCCCCCCCCCCCC [PI3P, di-C 16:0 PI3P]

Kd (hUHRF1 [3]): 4.7 µM
Compound: CCCCCCCCCCCCCCCC(=O)OC[C@H](COP(=O)(O)O[C@H]1[C@H](O)[C@@H](OP(=O)(O)O)[C@H](O)[C@@H](O)[C@H]1O)OC(=O)CCCCCCCCCCCCCCC [PI5P, di-C 16:0 PI5P]

Kd (hUHRF1 [4]): 3 µM
Compound: CCCCCCCCCCCCCCCC(=O)OC[C@H](COP(=O)(O)O[C@H]1[C@H](O)[C@@H](OP(=O)(O)O)[C@H](O)[C@@H](O)[C@H]1O)OC(=O)CCCCCCCCCCCCCCC [R649*, di-C 16:0 PI5P]

Compound: H3unmodified mononucleosome, 147 bp Widom 601
Kd (hUHRF1 (Homo sapiens)): 1.1 µM
